Measured values reported in patent US20230123334A1, “AMINO LIPID COMPOUND, PREPARATION METHOD THEREFOR, AND APPLICATION THEREOF” (SHENZHEN SHENXIN BIOTECHNOLOGY CO., LTD., priority 2020, published 2023).

These compounds were tested on HEK293 cells (assay: Preliminary screening as mRNA vectors, EGFP mRNA transfection of HEK293 cells). Details: EGFP mRNA 50 ng per well, 96-well plates; percentage of GFP fluorescent cells relative to total number of cells (Hoechst).
Type: cell-based
How it was run: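 HEK293 cells in DMEM plus 10% FBS transfected in 96-well format with 50 ng EGFP mRNA per well; Lipofectamine2000 served as positive control. Read-out is the percentage of GFP-fluorescent cells among total cells, counted by Hoechst nuclear stain.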
In the case of `CCCCCCCCCCCCN(CCCCCCCCCCCC)c1nc(NCCN2CCOCC2)nc(SCCCCCCCCC)n1` [D2S9^2N12], the “Absolute mRNA transfection efficiency in HEK293 cells” value (from here on “Absolute mRNA transfection efficiency”) is reported as 0.1%. With `CCCCCCCCCCCCN(CCCCCCCCCCCC)c1nc(NCCN2CCOCC2)nc(SCCCCCCCCCC)n1` [D2S10^2N12] the “Absolute mRNA transfection efficiency” value was 0.0%. For `CCCCCCCCCCCCN(CCCCCCCCCCCC)c1nc(NCCN2CCOCC2)nc(SCCCCCCCCCCC)n1` [D2S11^2N12], the “Absolute mRNA transfection efficiency” value was 0.3%. In the case of `CCCCCCCCCCCCSc1nc(NCCN2CCOCC2)nc(N(CCCCCCCCCCCC)CCCCCCCCCCCC)n1` [D2S12^2N12], the “Absolute mRNA transfection efficiency” value is reported as 0.1%. `CCCCCCCCCCCCCCSc1nc(NCCN2CCOCC2)nc(N(CCCCCCCCCCCC)CCCCCCCCCCCC)n1` [D2S14^2N12] was tested, and the “Absolute mRNA transfection efficiency” value was 0.0%. With `CCCCCCCCCCCCCCCSc1nc(NCCN2CCOCC2)nc(N(CCCCCCCCCCCC)CCCCCCCCCCCC)n1` [D2S15^2N12] the “Absolute mRNA transfection efficiency” value was 0.4%. `CCCCCCCCCCCCCCCCSc1nc(NCCN2CCOCC2)nc(N(CCCCCCCCCCCC)CCCCCCCCCCCC)n1` [D2S16^2N12] was tested, and the “Absolute mRNA transfection efficiency” value was 0.7%. With `CCCCCCCCCCCCCCCCCCSc1nc(NCCN2CCOCC2)nc(N(CCCCCCCCCCCC)CCCCCCCCCCCC)n1` [D2S18^2N12] the “Absolute mRNA transfection efficiency” value was 0.0%. In the case of `CCCCCCCCCCCCN(CCCCCCCCCCCC)c1nc(NCCN2CCCC2)nc(SCCCCCC)n1` [D3S6^2N12], the “Absolute mRNA transfection efficiency” value is reported as 0.4%. With `CCCCCCCCCCCCN(CCCCCCCCCCCC)c1nc(NCCN2CCCC2)nc(SCCCCCCC)n1` [D3S7^2N12] the “Absolute mRNA transfection efficiency” value was 0.4%. With `CCCCCCCCCCCCN(CCCCCCCCCCCC)c1nc(NCCN2CCCC2)nc(SCCCCCCCC)n1` [D3S8^2N12] the “Absolute mRNA transfection efficiency” value was 0.9%. With `CCCCCCCCCCCCN(CCCCCCCCCCCC)c1nc(NCCN2CCCC2)nc(SCCCCCCCCC)n1` [D3S9^2N12] the “Absolute mRNA transfection efficiency” value was 1.3%. `CCCCCCCCCCCCN(CCCCCCCCCCCC)c1nc(NCCN2CCCC2)nc(SCCCCCCCCCC)n1` [D3S10^2N12] was tested, and the “Absolute mRNA transfection efficiency” value was 0.1%. `CCCCCCCCCCCCN(CCCCCCCCCCCC)c1nc(NCCN2CCCC2)nc(SCCCCCCCCCCC)n1` [D3S11^2N12] was tested, and the “Absolute mRNA transfection efficiency” value was 0.0%. With `CCCCCCCCCCCCSc1nc(NCCN2CCCC2)nc(N(CCCCCCCCCCCC)CCCCCCCCCCCC)n1` [D3S12^2N12] the “Absolute mRNA transfection efficiency” value was 2.2%. With `CCCCCCCCCCCCCCSc1nc(NCCN2CCCC2)nc(N(CCCCCCCCCCCC)CCCCCCCCCCCC)n1` [D3S14^2N12] the “Absolute mRNA transfection efficiency” value was 0.2%. With `CCCCCCCCCCCCCCCSc1nc(NCCN2CCCC2)nc(N(CCCCCCCCCCCC)CCCCCCCCCCCC)n1` [D3S15^2N12] the “Absolute mRNA transfection efficiency” value was 1.7%. In the case of `CCCCCCCCCCCCCCCCSc1nc(NCCN2CCCC2)nc(N(CCCCCCCCCCCC)CCCCCCCCCCCC)n1` [D3S16^2N12], the “Absolute mRNA transfection efficiency” value is reported as 0.2%. In the case of `CCCCCCCCCCCCCCCCCCSc1nc(NCCN2CCCC2)nc(N(CCCCCCCCCCCC)CCCCCCCCCCCC)n1` [D3S18^2N12], the “Absolute mRNA transfection efficiency” value is reported as 0.1%. With `CCCCCCCCCCCCN(CCCCCCCCCCCC)c1nc(NCCN2CCCCC2)nc(SCCCCCC)n1` [D4S6^2N12] the “Absolute mRNA transfection efficiency” value was 2.2%. For `CCCCCCCCCCCCN(CCCCCCCCCCCC)c1nc(NCCN2CCCCC2)nc(SCCCCCCC)n1` [D4S7^2N12], the “Absolute mRNA transfection efficiency” value was 1.0%. In the case of `CCCCCCCCCCCCN(CCCCCCCCCCCC)c1nc(NCCN2CCCCC2)nc(SCCCCCCCC)n1` [D4S8^2N12], the “Absolute mRNA transfection efficiency” value is reported as 1.1%. `CCCCCCCCCCCCN(CCCCCCCCCCCC)c1nc(NCCN2CCCCC2)nc(SCCCCCCCCC)n1` [D4S9^2N12] was tested, and the “Absolute mRNA transfection efficiency” value was 0.1%. `CCCCCCCCCCCCN(CCCCCCCCCCCC)c1nc(NCCN2CCCCC2)nc(SCCCCCCCCCC)n1` [D4S10^2N12] was tested, and the “Absolute mRNA transfection efficiency” value was 0.1%. With `CCCCCCCCCCCCN(CCCCCCCCCCCC)c1nc(NCCN2CCCCC2)nc(SCCCCCCCCCCC)n1` [D4S11^2N12] the “Absolute mRNA transfection efficiency” value was 0.5%.
